{"source": "ChEMBL document CHEMBL1137222", "about": "“Architecture of P2Y nucleotide receptors: structural comparison based on sequence analysis, mutagenesis, and homology modeling” (J Med Chem, 2004)", "type_in_all_cases": "cell-based", "key": {"P2Y purinoceptor 1 [1]": {"target": "P2Y purinoceptor 1 (Homo sapiens, UniProt P47900, Y273A)", "sequence (P47900 whole entry Y273A)": "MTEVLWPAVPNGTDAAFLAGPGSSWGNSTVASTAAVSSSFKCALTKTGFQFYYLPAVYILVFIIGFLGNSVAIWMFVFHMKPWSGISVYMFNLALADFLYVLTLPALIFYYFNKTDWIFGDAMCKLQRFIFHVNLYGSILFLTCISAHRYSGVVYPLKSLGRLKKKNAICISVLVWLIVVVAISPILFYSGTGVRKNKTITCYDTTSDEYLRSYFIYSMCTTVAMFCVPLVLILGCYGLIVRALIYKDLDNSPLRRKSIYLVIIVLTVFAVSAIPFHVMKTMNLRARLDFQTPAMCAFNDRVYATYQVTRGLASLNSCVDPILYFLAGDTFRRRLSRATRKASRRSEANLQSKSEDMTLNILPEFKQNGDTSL", "assay": "Inhibition concentration required against human Y273A mutant strain P2Y1 receptor expressed in COS-7 cells is determined using [3H]-MRS2279 as radioligand"}, "P2Y purinoceptor 1 [2]": {"target": "P2Y purinoceptor 1 (Homo sapiens, UniProt P47900, Y273F)", "sequence (P47900 whole entry Y273F)": "as the sequence (P47900 whole entry Y273A) above, with A273F counted along it", "assay": "Inhibition concentration required against human Y273F mutant strain P2Y1 receptor expressed in COS-7 cells is determined using [3H]MRS2279 as radioligand"}, "P2Y purinoceptor 1 [3]": {"target": "P2Y purinoceptor 1 (Homo sapiens, UniProt P47900, Y306A)", "sequence (P47900 whole entry Y306A)": "as the sequence (P47900 whole entry Y273A) above, with A273Y, Y306A counted along it", "assay": "Inhibition concentration required against human Y306A mutant strain P2Y1 receptor expressed in COS-7 cells is determined using [3H]MRS2279 as radioligand"}, "P2Y purinoceptor 1 [4]": {"target": "P2Y purinoceptor 1 (Homo sapiens, UniProt P47900, Y306F)", "sequence (P47900 whole entry Y306F)": "as the sequence (P47900 whole entry Y273A) above, with A273Y, Y306F counted along it", "assay": "Inhibition concentration required against human Y306F mutant strain P2Y1 receptor expressed in COS-7 cells is determined using [3H]MRS2279 as radioligand"}, "P2Y purinoceptor 1 [5]": {"target": "P2Y purinoceptor 1 (Homo sapiens, UniProt P47900, Y203A)", "sequence (P47900 whole entry Y203A)": "as the sequence (P47900 whole entry Y273A) above, with Y203A, A273Y counted along it", "assay": "Inhibition concentration required against human Y203A (EL2) mutant strain P2Y1 receptor expressed in COS-7 cells is determined using [3H]MRS2279 as radioligand"}, "P2Y purinoceptor 1 [6]": {"target": "P2Y purinoceptor 1 (Homo sapiens, UniProt P47900)", "sequence (P47900 whole entry)": "as the sequence (P47900 whole entry Y273A) above, with A273Y counted along it", "assay": "Inhibition concentration required against wild type strain P2Y1 receptor expressed in COS-7 cells is determined using [3H]-MRS2279 as radioligand"}, "P2Y purinoceptor 1 [7]": {"target": "P2Y purinoceptor 1 (Homo sapiens, UniProt P47900, Y203F)", "sequence (P47900 whole entry Y203F)": "as the sequence (P47900 whole entry Y273A) above, with Y203F, A273Y counted along it", "assay": "Inhibition concentration required against human Y203F mutant strain P2Y1 receptor expressed in COS-7 cells is determined using [3H]MRS2279 as radioligand"}}}
{"smiles": "CNc1ncnc2c1ncn2[C@H]1CC(OP(=O)(O)O)[C@@H](COP(=O)(O)O)O1", "note": "(single isomer, unassigned)", "values": [{"measurement": "IC50", "setting": "P2Y purinoceptor 1 [1]", "result": 0.48, "unit": "µM"}, {"measurement": "IC50", "setting": "P2Y purinoceptor 1 [2]", "result": 0.66, "unit": "µM"}, {"measurement": "IC50", "setting": "P2Y purinoceptor 1 [3]", "result": 0.32, "unit": "µM"}, {"measurement": "IC50", "setting": "P2Y purinoceptor 1 [4]", "result": 0.98, "unit": "µM"}, {"measurement": "IC50", "setting": "P2Y purinoceptor 1 [5]", "result": 0.74, "unit": "µM"}, {"measurement": "IC50", "setting": "P2Y purinoceptor 1 [6]", "result": 0.21, "unit": "µM"}, {"measurement": "IC50", "setting": "P2Y purinoceptor 1 [7]", "result": 0.33, "unit": "µM"}]}
